In patent EP3494999A1, “PSMA LIGANDS FOR IMAGING AND ENDORADIOTHERAPY” (Technische Universität München, priority 2017, dated 2019):
Numbered stars: 1 amine (or outer) side, 2 acyl side, 3 side chain; on linkers, the order of the positions; unused ones are H or OH. Square brackets hold non-standard residues; d marks the D form. Side chains are listed from the residue outwards. Peptide text beside a SMILES is read from it. * marks the point of attachment. X2 = O=C(O)CC[C@H](NC(=O)N[C@@H](CCC(=O)N[C@H](CCCN*)C(=O)O)C(=O)O)C(=O)O; X1 = O=C(O)CC[C@H](NC(=O)N[C@@H](CCCCNC(=O)CCCCCCC(=O)*)C(=O)O)C(=O)O; DOTAGA = O=C(O)CN1CCN(CC(=O)O)CCN(C(CCC(=O)*)C(=O)O)CCN(CC(=O)O)CC1; dPhe(4-NH2) = Nc1ccc(C[C@@H](N)C(=O)O)cc1; Phe(4-NH2) = Nc1ccc(C[C@H](N)C(=O)O)cc1; d2Nal = N[C@H](Cc1ccc2ccccc2c1)C(=O)O; Suc = O=C(CCC(=O)[*:2])[*:1]

How the values were obtained:
human serum albumin [1] = target: T1, human serum albumin (Homo sapiens, UniProt P02768); experiment: Literature HSA binding of the reference substances used to calibrate the HSA column; settings: logarithmic K of human serum albumin binding, from the literature HSA%
T1 sequence (P02768 25-609): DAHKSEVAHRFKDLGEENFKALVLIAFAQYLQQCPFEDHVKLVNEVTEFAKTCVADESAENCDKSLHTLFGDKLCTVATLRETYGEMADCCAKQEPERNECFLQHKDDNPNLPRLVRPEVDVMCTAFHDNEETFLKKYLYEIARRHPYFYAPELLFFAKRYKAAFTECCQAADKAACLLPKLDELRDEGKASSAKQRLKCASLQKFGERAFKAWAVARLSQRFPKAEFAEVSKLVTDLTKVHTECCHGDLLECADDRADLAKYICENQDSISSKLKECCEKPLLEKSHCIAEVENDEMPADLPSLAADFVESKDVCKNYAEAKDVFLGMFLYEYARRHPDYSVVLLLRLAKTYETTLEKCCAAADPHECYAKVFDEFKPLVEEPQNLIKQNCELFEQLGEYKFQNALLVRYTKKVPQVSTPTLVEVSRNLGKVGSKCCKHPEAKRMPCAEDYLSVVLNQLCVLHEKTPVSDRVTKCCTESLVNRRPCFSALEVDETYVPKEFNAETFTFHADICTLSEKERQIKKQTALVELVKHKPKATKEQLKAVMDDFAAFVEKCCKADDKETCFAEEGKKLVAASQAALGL
Procedure: (§1) The mobile phase was freshly prepared for each experiment and only used for one day. The column was kept at room temperature and each run was stopped after detection of the signal to reduce the acquisition time. All substances were dissolved in a 0.5mg/ml concentration in 50% 2-Propanol and 50% 50mM pH 6.9 ammonium acetate buffer. […] All nine reference substances were injected consecutively to establish a non-linear regression with OriginPro 2016G. […] Table 1: Reference substances used for the calibration of the HSA-column.

human serum albumin [2] = target: T1, human serum albumin; settings: literature value of human serum albumin binding (Valko et al. or Yamazaki et al.); cited from earlier work
[3] = target: T2, human serum albumin (HSA) (Homo sapiens, UniProt P02768); assay type: in vitro ADME
T2 construct: purchased Daicel Chemical Industries, purchased from Chiral Technologies Europe (France)
T2 sequence (P02768 25-609): as above
Excerpt: The Fmoc-(9-fluorenylmethoxycarbonyl-) and all other protected amino acid analogs were purchased from Bachem (Bubendorf, Switzerland) or Iris Biotech (Marktredwitz, Germany). […] The tritylchloride polystyrene (TCP) resin was obtained from PepChem (Tubingen, Germany). Chematech (Dijon, France) delivered the chelator DOTAGA-anhydride. All necessary solvents and other organic reagents were purchased from either Alfa Aesar (Karlsruhe, Germany), Sigma-Aldrich (Munich, Germany) or VWR (Darmstadt, Germany). Solid phase synthesis of the peptides was carried out by manual operation using an Intelli-Mixer syringe shaker (Neolab, Heidelberg, Germany). […] Analysis of the peptides was performed by applying different gradients of 0.1% (v/v) trifluoroacetic acid (TFA) in H2O (solvent A) and 0.1% TFA (v/v) in acetonitrile (MeCN) (solvent B) with a constant flow of 1 mL/min (specific gradients are cited in the text). […] Human serum albumin (HSA) binding was determined using a Chiralpak HSA 50 x 3 mm 5µm Analytical Column connected to a Chiralpak HSA 10 x 3 mm 5µm Guard Cartridge (Daicel Chemical Industries) purchased from Chiral Technologies Europe (France). Nonlinear regression for the HSA binding was performed using OriginPro 2016G. Both retention times tR as well as the capacity factors K' are cited in the text. […] Radioactivity was detected through connection of the outlet of the UV-photometer to a Nal(TI) well-type scintillation counter from EG&G Ortec (Munich, Germany). […] ESI-mass spectra were acquired on an expression^L CMS mass spectrometer (Advion Ltd., Harlow, UK) and on a Varian 500-MS IT mass spectrometer (Agilent Technologies, Santa Clara, USA). For the HSA binding experiment a Chiralpak HSA 50 x 3 mm 5µm Analytical Column, (Daicel Chemical Industries, LTD) connected to a Chiralpak HSA 10 x 3 mm 5µm Guard Cartridge (Daicel Chemical Industries; Chiral Technologies Europe) was used.
as §1

[4] = assay type: physicochemical
Procedure: To a volume of 500 µL n-octanol, 0.5 to 1.0 MBq of the radiolabeled PSMA inhibitor in 500 µL PBS (pH = 7.4) was added and rigorously vortexted for 3 min (n = 6). For quantitative phase separation, the mixture was centrifuged at 6,000 g for 5 min (Biofuge 15, Heraus Sepatech, Osterode, Germany).

PSMA [5] = target: T3, PSMA (Homo sapiens, UniProt Q04609); experiment: Internalization of radiolabeled PSMA inhibitors into cells (PMPA blockade); assay type: cell-based; set-up: endogenous in cells; LNCaP is named only for the xenografts; settings: 177Lu-labeled inhibitors, 37°C; reference basis of the % not stated
T3 sequence (Q04609 whole entry): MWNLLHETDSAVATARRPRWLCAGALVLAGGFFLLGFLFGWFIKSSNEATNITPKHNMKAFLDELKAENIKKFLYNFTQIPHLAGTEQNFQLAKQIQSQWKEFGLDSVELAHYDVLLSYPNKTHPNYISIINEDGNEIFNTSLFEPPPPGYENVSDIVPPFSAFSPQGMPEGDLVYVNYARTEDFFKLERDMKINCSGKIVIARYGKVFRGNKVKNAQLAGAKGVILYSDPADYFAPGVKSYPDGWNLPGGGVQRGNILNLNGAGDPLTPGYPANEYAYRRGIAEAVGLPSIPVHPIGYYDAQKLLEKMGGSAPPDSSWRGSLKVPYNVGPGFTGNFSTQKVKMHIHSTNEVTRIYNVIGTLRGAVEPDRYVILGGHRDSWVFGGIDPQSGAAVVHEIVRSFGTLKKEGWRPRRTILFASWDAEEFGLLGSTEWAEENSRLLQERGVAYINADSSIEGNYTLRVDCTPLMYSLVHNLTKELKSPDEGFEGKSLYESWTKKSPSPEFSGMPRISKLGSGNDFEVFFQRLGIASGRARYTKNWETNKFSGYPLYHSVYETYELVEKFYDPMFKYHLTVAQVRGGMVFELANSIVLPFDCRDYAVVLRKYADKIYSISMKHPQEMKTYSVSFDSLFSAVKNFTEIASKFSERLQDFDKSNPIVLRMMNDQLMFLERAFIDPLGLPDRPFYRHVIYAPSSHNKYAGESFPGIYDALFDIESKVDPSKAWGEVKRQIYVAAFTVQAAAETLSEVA
Procedure: The ^177Lu-labeled compounds, for in vitro studies, were prepared as previously described (Sosabowski, J.K. and S.J. Mather, Conjugation of DOTA-like chelating agents to peptides and radiolabeling with trivalent metallic isotopes. Nat. Protocols, 2006. 1(2): p. 972-976) with minor modifications and used without further purification. In short, to a reaction volume of 10 µL 1.0 M NH4OAc buffer pH = 5.9 was added 0.75 to 1.0 nmol tracer (7.5 to 10 µL), 10 to 40 MBq ^177LuCl3 (Specific Activity (AS) > 3000 GBq/mg, 740 MBq/mL, 0.04 M HCl, ITG, Garching, Germany) and finally filled up to 100 µL with trace-pure Water (Merck, Darmstadt, Germany). The reaction mixture was heated for 30 min at 95°C and the radiochemical purity was determined using Radio-TLC.
[…] Each well was treated with either 25 µL of either DMEM-F12 (5% BSA) or a 100 µM PMPA solution for blockade. Next, 25 µL of the respective ^68Ga-and ^177Lu-labeled PSMA inhibitors (2.0 nM / 5.0 nM) was added and the cells incubated at 37°C for 5, 15, 30 and 60 min, respectively. The experiment was terminated by placing the 24-well plate on ice for 3 min and consecutive removal of the medium. Each well was rinsed with 250 µL HBSS and the fractions from these first two steps combined, representing the amount of free radioligand. Removal of surface bound activity was accomplished by incubation of the cells with 250 µL of ice-cold PMPA (10 µM in PBS) solution for 5 min and rinsed again with another 250 µL of ice-cold PBS. The internalized activity was determined by incubation of the cells in 250 µL 1.0 M NaOH and the combination with the fraction of a subsequent wash step with 250 µL 1.0 M NaOH. Each experiment (control and blockade) was performed in triplicate for each time point. Free, surface bound and internalized activity was quantified in a γ-counter.

PSMA [6] = target: T3, PSMA; experiment: Determination of IC50: competitive binding against ([125I]I-BA)KuE on cells; set-up: endogenous in cells; LNCaP is named only for the xenografts; settings: natLu complexes; displacement of ([125I]I-BA)KuE, 60 min on ice, HBSS (1% BSA)
Procedure: The corresponding ^natLu^III-complexes were prepared from a 2 mM aqueous solution of the PSMA inhibitor with a 2.5 molar excess of LuCl3 (20 mM solution), heated to 95 °C for 30 min. After cooling, the ^natLu^III-chelate formation was confirmed using HPLC and MS. […] Calculated monoisotopic mass (C67H92N11O23 Lu) = 1,593.6 found: m/z = 1,595.0 [M+H]^+, 798.2 [M+2H]^2+. [^natLu]DOTAGA-(4-NH2)f-y-nal-k-KuE ([^natLu]PSMA-5): HPLC (10 to 60% B in 15 min.): tR = 9.0 min K' = 3.5. Calculated monoisotopic mass (C76H102N13O24 Lu) = 1,755.7 found: m/z = 1,756.4 [M+H]^+, 879.0 [M+2H]^2+. [^natLu]DOTAGA-(4-NH2)F-y-nal-k-KuE ([^natLu]PSMA-6): HPLC (10 to 60% B in 15 min.): tR = 9.1 min K' = 3.6. Calculated monoisotopic mass (C76H102N13O24 Lu) = 1,755.7 found: m/z = 1,756.6 [M+H]^+, 878.8 [M+2H]^2+. [^natLu]DOTAGA-y-nal-k(Suc-(HO-δ-orn-γ-EuE))-OH ([^natLu]PSMA-7): HPLC (10 to 60 % B in 15 min): tR = 7.8 min K' = 2.9. Calculated monoisotopic mass (C67H89N12O26 Lu): 1,652.5 found: m/z = 1,653.9 [M+H]^+. [^natLu]DOTAGA-(4-NH2)f-y-nal-k(Suc-(HO-δ-orn-γ-EuE))-OH ([^natLu]PSMA-8): HPLC (10 to 60 % B in 15 min): tR = 7.3 min K' = 2.7. Calculated monoisotopic mass (C67H99N14O27Lu): 1,814.6 found: m/z = 1,815.9 [M+H]^+, 908.3 [M+2H]^2+. [^natLu]DOTAGA-(4-NH2)F-y-nal-k(Suc-(HO-δ-orn-γ-EuE))-OH ([^natLu]PSMA-9): HPLC (10 to 60 % B in 15 min): tR = 7.2 min K' = 2.6. Calculated monoisotopic mass (C67H99N14O27Lu): 1,814.6 found: m/z = 1,815.6 [M+H]^+, 908.3 [M+2H]^2+. [^natLu]DOTAGA-y-nal-k(Glut-(l-f)-KuE) ([^natLu]PSMA-10): HPLC (25 to 55% B in 15 min): tR = 10.6 min K' = 4.9. Calculated monoisotopic mass (C73H94IN12O24Lu): 1,825.5 found: m/z = 1,826.5 [M+H]^+, 913.8 [M+2H]^2+. [^natLu]DOTAGA-(4-NH2)f-y-nal-k(Glut-(l-f)-KuE) ([^natLu]PSMA-11): HPLC (10 to 60% B in 20 min): tR = 9.7 min K' = 3.9. Calculated monoisotopic mass (C82H104IN14O25Lu): 1,986.6 found: m/z = 1,987.5 [M+H]^+, 994.3 [M+2H]^2+.
The reaction solution was incubated for 10 min at RT, loaded on a cartridge and rinsed with 10 mL water (C18 Sep Pak Plus cartridge, preconditioned with 10 mL MeOH and 10 mL water). After elution with 2.0 mL of a 1:1 mix (v/v) of EtOH/MeCN, the radioactive solution was evaporated to dryness under a gentle nitrogen stream and treated with 200 µL TFA for 30 min with subsequent evaporation of TFA.
After removal of the culture medium, the cells were treated once with 500 µL of HBSS (Hank's balanced salt solution, Biochrom, Berlin, Germany, with addition of 1% bovine serum albumin (BSA)) and left 15 min on ice for equilibration in 200 µL HBSS (1% BSA). […] All experiments were performed at least three times for each concentration. After 60 min incubation on ice, the experiment was terminated by removal of the medium and consecutive rinsing with 200 µL of HBSS. The media of both steps were combined in one fraction and represent the amount of free radioligand. Afterwards, the cells were lysed with 250 µL of 1.0 M NaOH and united with the 200 µL HBSS of the following wash step. Quantification of bound and free radioligand was accomplished in a γ-counter.

Row | SMILES | Log K HSA (human serum albumin [1]) | Lit. HSA% (human serum albumin [2]) [%] | HSA [%] [3] [%] | logP [4] | Internalization [%] (PSMA [5]) | IC50 (PSMA [6]) [nM]
1 | Nc1ccccc1 [Aniline] | -0.79 | 14.06 | – | – | – | –
2 | O=C(O)c1ccccc1 [Benzoic Acid] | -0.29 | 34.27 | – | – | – | –
3 | CCCN(CCC)S(=O)(=O)c1ccc(C(=O)O)cc1 [Probenecid] | – | 95.00 | – | – | – | –
4 | O=C(O)CC[C@H](NC(=O)N[C@@H](CCCCNC(=O)CCCCCCC(=O)NCCCC[C@@H](NC(=O)[C@@H](Cc1ccccc1)NC(=O)[C@@H](Cc1ccc(O)c(I)c1)NC(=O)CCC(C(=O)O)N1CCN(CC(=O)O)CCN(CC(=O)O)CCN(CC(=O)O)CC1)C(=O)O)C(=O)O)C(=O)O (stereo partly drawn) [[^nat/177Lu]PSMA-1, DOTAGA-(l-y)-f-k-KuE, metal not drawn, reference compound] | – | – | 78.6 | -4.12 ± 0.1 | 75.5 ± 1.6 | –
5 | Nc1ccc(C[C@@H](NC(=O)CCC(C(=O)O)N2CCN(CC(=O)O)CCN(CC(=O)O)CCN(CC(=O)O)CC2)C(=O)N[C@H](Cc2ccc(O)cc2)C(=O)N[C@H](Cc2ccc3ccccc3c2)C(=O)N[C@H](CCCCNC(=O)CCCCCCC(=O)NCCCC[C@H](NC(=O)N[C@@H](CCC(=O)O)C(=O)O)C(=O)O)C(=O)O)cc1 (stereo partly drawn) [[^nat/177Lu]PSMA-5, DOTAGA-(4-NH2)f-y-nal-k-KuE, metal not drawn] ({DOTAGA}-[dPhe(4-NH2)][dY][d2Nal][dK](X1)-OH) | – | – | – | -4.11 ± 0.06 | 111.3 ± 11.1 | 5.8 ± 1
6 | O=C(O)CC[C@H](NC(=O)N[C@@H](CCC(=O)N[C@H](CCCNC(=O)CCC(=O)NCCCC[C@@H](NC(=O)[C@@H](Cc1ccc2ccccc2c1)NC(=O)[C@@H](Cc1ccc(O)cc1)NC(=O)CCC(C(=O)O)N1CCN(CC(=O)O)CCN(CC(=O)O)CCN(CC(=O)O)CC1)C(=O)O)C(=O)O)C(=O)O)C(=O)O (stereo partly drawn) [[^nat/177Lu]PSMA-7, DOTAGA-y-nal-k(Suc-(HO-δ-orn-γ-EuE))-OH, metal not drawn, reference compound] | – | – | – | – | 216.2 ± 9.2 | 3.1 ± 1
7 | Nc1ccc(C[C@@H](NC(=O)CCC(C(=O)O)N2CCN(CC(=O)O)CCN(CC(=O)O)CCN(CC(=O)O)CC2)C(=O)N[C@H](Cc2ccc(O)cc2)C(=O)N[C@H](Cc2ccc3ccccc3c2)C(=O)N[C@H](CCCCNC(=O)CCC(=O)NCCC[C@@H](NC(=O)CC[C@H](NC(=O)N[C@@H](CCC(=O)O)C(=O)O)C(=O)O)C(=O)O)C(=O)O)cc1 (stereo partly drawn) [[^nat/177Lu]PSMA-8, DOTAGA-(4-NH2)f-y-nal-k(Suc-(HO-δ-orn-γ-EuE))-OH, metal not drawn] ({DOTAGA}-[dPhe(4-NH2)][dY][d2Nal][dK]([Suc-X2])-OH) | – | – | – | -4.02 ± 0,25 | 207.3 ± 8.5 | 2.5 ± 0.6
8 | Nc1ccc(C[C@H](NC(=O)CCC(C(=O)O)N2CCN(CC(=O)O)CCN(CC(=O)O)CCN(CC(=O)O)CC2)C(=O)N[C@H](Cc2ccc(O)cc2)C(=O)N[C@H](Cc2ccc3ccccc3c2)C(=O)N[C@H](CCCCNC(=O)CCC(=O)NCCC[C@@H](NC(=O)CC[C@H](NC(=O)N[C@@H](CCC(=O)O)C(=O)O)C(=O)O)C(=O)O)C(=O)O)cc1 (stereo partly drawn) [[^nat/177Lu]PSMA-9, DOTAGA-(4-NH2)F-y-nal-k(Suc-(HO-δ-orn-γ-EuE))-OH, metal not drawn] ({DOTAGA}-[Phe(4-NH2)][dY][d2Nal][dK]([Suc-X2])-OH) | – | – | – | -4.01 ± 0.11 | – | 2.5 ± 0.6
